Measurements as given in US20100069395A1, “Pyrazolo[1,5-a]pyrimidine-3-carboxylic acid compounds as protein kinase inhibitors” (priority 2006, published 2010).

| melting point | SMILES |
| --- | --- |
| 256 to 258 °C | COc1ccc(C(=O)Nc2ccc(C)c(NC(=O)c3cnc4ccnn4c3)c2)cc1C(F)(F)F [Example 7, Pyrazolo[1,5-a]pyrimidine-6-carboxylic acid[5-(4-methoxy-3-trifluoromethyl-benzoylamino)-2-methyl-phenyl]-amide] |
| 230 to 232 °C | COc1ccc(-c2cnn3cc(C(=O)Nc4c(C)cccc4C)cnc23)cc1OC [Example 5, 3-(3,4-Dimethoxy-phenyl)-pyrazolo[1,5-a]pyrimidine-6-carboxylic acid (2,6-dimethylphenyl)-amide] |
| 259 to 263 °C | Cc1ccc(C(=O)Nc2cccc(C(F)(F)F)c2)cc1NC(=O)C1=CNc2ccnn2C1 [Example 3, 4,7-Dihydro-pyrazolo[1,5-a]pyrimidine-6-carboxylic acid [2-methyl-5-(3-trifluoromethyl-phenylcarbamoyl)-phenyl]-amide] |
| 222 to 224 °C | Cc1ccc(C(=O)Nc2cccc(C(F)(F)F)c2)cc1NC(=O)c1cnc2ccnn2c1 [Example 1, Pyrazolo[1,5-a]pyrimidine-6-carboxylic acid[2-methyl-5-(3-trifluoromethyl-phenylcarbamoyl)-phenyl]-amide] |
| 227 to 229 °C | Cc1cccc(C)c1NC(=O)c1cnc2c(-c3cccc(N4CCN(C)CC4)c3)cnn2c1 [Example 4, 3-[3-(4-Methyl-piperazin-1-yl)-phenyl]-pyrazolo[1,5-a]pyrimidine-6-carboxylic acid(2,6-dimethyl-phenyl)-amide] |
| 239 to 241 °C | Cc1ccc(NC(=O)c2cccc(C(F)(F)F)c2)cc1NC(=O)c1cnc2ccnn2c1 [Example 2, Pyrazolo[1,5-a]pyrimidine-6-carboxylic acid[2-methyl-5-(3-trifluoromethyl-benzoylamino)-phenyl]-amide] |
| 267 to 269 °C | Cc1ccc(NC(=O)c2ccc(F)c(C(F)(F)F)c2)cc1NC(=O)c1cnc2ccnn2c1 [Example 6, Pyrazolo[1,5-a]pyrimidine-6-carboxylic acid[5-(4-fluoro-3-trifluoromthyl-benzoylamino)-2-methyl-phenyl]-amide] |
